From patent publication US20250127770A1, “FORMULATIONS OF RADIPRODIL” (GRIN Therapeutics, Inc., priority 2021, published 2025)

Experiments:
[1] = Stability study of radiprodil solid forms (dihydrate vs anhydrous form A); format: physicochemical; conditions: in presence of water
[2] = Dissolution test, USPII paddle apparatus, 0.5% sodium lauryl sulphate solution in water; format: physicochemical; conditions: without reconstitution in SYRSPEND SF and water prior to the test; FIG. 2
Method: This study summarizes dissolution experiments preformed on the radiprodil drug substance and on the drug product including two drug loadings with and without reconstitution in SYRSPEND® and water prior to the dissolution test.
All dissolution experiments were performed on six vessels and the comparative curves were plotted using the average of them.
Some dissolution experiments were performed using prior to the dissolution a reconstitution in Syrpend® and water. In that case, the reconstitution was prepared and let under stirring for 1 night prior to the dissolution test. In order to mimic the clinical pharmacy manual, an additional test was performed with an extemporaneous suspension (15 min under stirring prior to the dissolution).
Dissolution and high performance liquid chromatography (HPLC) parameters used in the experiments are provided below in Tables […] and 12, respectively.
Radiprodil, as the dihydrate and Form A, as well as Form A containing granules (1% and 10% as described above) and blends of dihydrate and Form A (1% and 10% blends of dihydrate form and Form A) were submitted to dissolution tests in sodium lauryl sulfate (0.5% in water). […]

SMILES	Stability of solid form [1]	Dissolution profile [2]
O=C(Nc1ccc2[nH]c(=O)oc2c1)C(=O)N1CCC(Cc2ccc(F)cc2)CC1 (single isomer, unassigned) [anhydrous form A, Radiprodil]	more stable than the dihydrate even in presence of water	–
O=C(Nc1ccc2[nH]c(=O)oc2c1)C(=O)N1CCC(Cc2ccc(F)cc2)CC1 [dihydrate form, Radiprodil]	–	more rapid in aqueous media than the one of anhydrous form A
